Source: article PMC10216263, “Favorable Preclinical Pharmacological Profile of a Novel Antimalarial Pyrrolizidinylmethyl Derivative of 4-amino-7-chloroquinoline with Potent In Vitro and In Vivo Activities” (Biomolecules, 2023)
Values joined by “and” are separate entries in the source; they are usually repeats but may differ in a detail not shown here. Identical values can stand only once. Like-named read-outs stand apart in the source and are kept apart here.

Legend:
P. falciparum W2 (CQ-R) = system: P. falciparum W2 (CQ-R); design: method as in PMID 18538567; conditions: 72 h incubation, pLDH method, mean of 3 experiments; cited from earlier work
[1] = Chemical stability in incubation medium; assay type: physicochemical; conditions: 90 min at 37 °C, Leibovitz L-15 medium
Experimental: An automatic liquid handling system (Multiprobe II EX, Packard) was used for sampling. At 0, 10, 20, 30, 60 and 90 min, […] aliquots of the incubates were taken and added with […] of ice-cold ACN and […] of 1 µM warfarin in ACN (internal standard), and samples centrifuged at 2000 rpm for 20 min. The analysis of supernatant was conducted using LC-MS/MS. MG3 was incubated in the medium under the same conditions to evaluate the chemical stability; 7-ethoxycoumarin (7-ETC) 1 µM and 7-hydroxycoumarin (7-HC) 30 µM were utilized as positive controls for Phase I and Phase II activities. […] Half-life and CLint were determined from the concentration (counts) remaining at the different sampling points using the LC-MS/MS method. The slope was calculated using linear regression analysis of the curve (natural logarithmic area of the compound remaining against the time) and converted into the half-life (t1/2) and CLint expressed as µL/min/million cells and mL/min/kg, respectively.

in vivo = conditions: CD1, mouse, po, 10 mg/kg, AUClast
P. berghei ANKA = experiment: Four-day suppressive Peters' test, oral; assay type: in vivo, P. berghei in CD1 mice; conditions: once a day for 4 days, parasitemia day 4, CD1 mice
Experimental: Groups of five CD1 mice were inoculated i.v., with 4 × 10^6 infected erythrocytes/mice. Compounds, dissolved in standard suspending formula (SSV) (0.5% sodium carboxymethylcellulose, 0.5% benzyl alcohol, 0.4% Tween 80, and 0.9% NaCl), were administered once a day for 4 days via oral gavage, starting two hours post-infection. […] Parasitemia was evaluated using microscopic examination of Giemsa-stained blood films taken on day four, processed using MICROSOFT® EXCEL spreadsheets (Microsoft Corp., Redmond, WA, USA), and expressed as percentages of inhibition from the arithmetic mean parasitemia of each group in relation to the untreated group. ED50 and ED90 values were calculated using GraphPad Prism 6 (GraphPad Software Inc., La Jolla, CA, USA).

[2] = system: P. falciparum IPC5202 (ARM-R); experiment: microbe, parasite or virus in culture; assay type: cell-based
Experimental: The strains D10 and 3D7 (CQ-Sensitive), and V1-S (CQ, pyrimethamine and cycloguanil resistant), K1 (CQ and PYR resistant), W2 and FCR3 (CQ-Resistant), TM90C2A (CQ, MQ, PYR and ATQ resistant) and IPC 5202 (MR4-1240, artemisinin-resistant, K13 mutation, and R539T) of Pf were cultured in vitro as described by Trager and Jensen with minor modifications. Briefly, parasites were maintained at 5% hematocrit (human type A-positive red blood cells) in RPMI 1640 (EuroClone, S.p.A. Milan, Italy) medium with the addition of 10% heat inactivate human serum or 1% AlbuMax (In vitrogen, Milan, Italy), 20 mM Hepes and 2 mM glutamine (Euroclone), at 37 °C in a standard gas mixture consisting of 1–3% O2, 5% CO2, and 92–94% N2.
Compounds were dissolved in either water or DMSO and then diluted with medium to achieve the required concentrations (final non-toxic DMSO concentration <1%). Asynchronous cultures of Pf with parasitaemia of 1–1.5% and 1% final hematocrit were aliquoted into 96-well flat-bottom microplates (Corning, Glendale, AZ, USA) with serial dilutions of test compounds and incubated for 72 h at 37 °C. Parasite growth was determined spectrophotometrically (OD650) by measuring the activity of the parasite lactate dehydrogenase (pLDH) according to a modified version of the method of Makler in control and drug-treated cultures.

[3] = system: Pf-3D7 gametocytes >95% Stage I-III; experiment: Gametocyte luciferase assay (3D7elo1-pfs16-CBG99); assay type: cell-based, P. falciparum
Experimental: (§1) In vitro activity of MG3 against P falciparum sexual gametocyte stages […]
(§2) luminescent transgenic 3D7 strain (3D7elo1-pfs16-CBG99) at two different stages (I-III and V) using the […]
(§3) Briefly, 100 µL of culture medium were removed from each well to increase hematocrit; 70 µL of resuspended culture were transferred to a black 96-well plate; 70 µL of D-luciferin (1 mM in citrate buffer 0.1 M, pH 5.5) were added. Luminescence measurements were performed after 10 min with 500 ms integration time using a Synergy4-BioTek reader.
(§4) (1 picture or pasted object on this page, not shown here)

[4] = system: Pf-3D7 gametocytes >95% Stage V; experiment: Gametocyte luciferase assay (3D7elo1-pfs16-CBG99); assay type: cell-based, P. falciparum; conditions: Plasmodium falciparum, 3D7, read-out: Pf-3D7 gametocytes IC50 (nM), >95% Stage V
Experimental: as §1, §2, §3, §4

CYP2C9 = CYP2C9 (Homo sapiens, UniProt P11712); experiment: in vitro
CYP2C9, sequence (P11712 whole entry): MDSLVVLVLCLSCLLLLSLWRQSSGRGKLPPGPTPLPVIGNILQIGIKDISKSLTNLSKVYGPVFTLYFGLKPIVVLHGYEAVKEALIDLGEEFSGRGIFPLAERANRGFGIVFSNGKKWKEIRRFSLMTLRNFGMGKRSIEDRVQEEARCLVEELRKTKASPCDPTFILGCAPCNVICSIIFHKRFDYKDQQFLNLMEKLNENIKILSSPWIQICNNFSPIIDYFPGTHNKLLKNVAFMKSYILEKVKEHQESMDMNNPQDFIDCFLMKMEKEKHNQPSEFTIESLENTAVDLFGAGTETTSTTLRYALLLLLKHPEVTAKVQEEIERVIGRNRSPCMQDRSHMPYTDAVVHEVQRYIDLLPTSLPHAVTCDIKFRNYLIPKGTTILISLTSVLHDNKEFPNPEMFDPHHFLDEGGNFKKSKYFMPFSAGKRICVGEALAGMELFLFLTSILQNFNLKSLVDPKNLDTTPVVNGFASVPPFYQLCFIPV

[5] = Oral DRF and systemic exposure in NHP; assay type: in vivo, Cynomolgus monkeys; conditions: for AUC(0-t) / Cmax / Tmax: po, 50 mg/kg/day; for half-life: plasma, Day 5, 50 mg/kg/day oral, read-out: t1/2, z (converted)
Experimental: Seven days oral DRF in rats and dog, and five days oral DRF in Non-Human Primates (NHP) were performed using Sprague Dawley rats (n = 3/time point) of both sexes, one male and one female dog Beagle (Marshall/Green Hill) and one male and one female monkeys/Cynomolgus (Noveprim Ltd., Mahebourg Mauritius,). MG3 was administered as oral suspension in 0.5% methocel in water (400 cP viscosity) at the following doses: 30, 60 and 120 mg/kg/day for 7 days (rat), 15 and 30 mg/kg/days for 7 days (dog) and 25, 50 and 75 mg/kg/day (NHP). No Observed Effects Levels (NOEL) were determined. Mortality, behavior, and general conditions were observed daily. Body weight was recorded pre-test, and on Days 1, 4 and 7. Food consumption was recorded from Days 1 to 4 and 4 to 7. Hematological and clinical chemistry examinations were performed on Day 8. All animals were sacrificed under anesthesia at the end of the treatment period on Day 8 of study. Post-mortem examinations included necropsy, collection, and histological examination performed of selected organs/tissues.

[6] = both sexes, cynomolgus monkey, in vivo
[7] = female, cynomolgus monkey, in vivo
[8] = male, cynomolgus monkey, in vivo

Clc1ccc2c(NCC34CCCN3CCC4)ccnc2c1 [MG3, 7-Chloro-N-((hexahydro-1H-pyrrolizin-7a-yl)methyl)quinolin-4-amine]
IC50 (P. falciparum W2 (CQ-R)): 28.9 nM | chemical stability in incubation medium alone [1]: did not show any degradation | AUC(0-t) (in vivo): 1030 ng·h/mL | ED50 (P. berghei ANKA; Plasmodium berghei, 96 h, read-out: ED50 (95% CI) Mean): 5.22 mg/kg | ED90 (95% CI) Mean (P. berghei ANKA): 7.55 (6.38–8.72) mg/kg | IC50 ([2]; Plasmodium falciparum, 72 h, read-out: P. falciparum IC50 nM, IPC5202 (ARM-R), 72 h incubation, pLDH method): < 15 nM | IC50 ([2]; read-out: P. falciparum IC50 nM, IPC5202 (ARM-R), 72 h incubation, pLDH method): 10 nM and 10.7 nM | IC50 ([3]; Plasmodium falciparum, 3D7, read-out: Pf-3D7 gametocytes IC50 (nM), >95% Stage I-III, luciferase readout, 3D7elo1-pfs16-CBG99): 102 ± 22.1 nM | IC50 ([3]; read-out: Pf-3D7 gametocytes IC50 (nM), >95% Stage I-III, luciferase readout, 3D7elo1-pfs16-CBG99): ~100 nM | IC50 [4]: 10700 ± 2790 nM | inhibition at 3 µM (CYP2C9): 8.8 ± 2.2% | tolerability ([5]; NHP, 50 mg/kg/day for five consecutive days): tolerated with limited clinical signs | toxicity finding ([5]; NHP, 75 mg/kg/day oral (Phase I, incremental doses)): associated with mortality and severe CNS-related clinical signs | AUC(0-t) [5, 6]: 896 ± 132 ng·h/mL | Cmax [5, 6]: 70.1 ± 3.68 ng/mL | Tmax [5, 6]: 1.25 ± 1.06 h | MTD at 5 days ([5]; both sexes, cynomolgus monkey, in vivo, NHP, 5-day oral, read-out: maximum tolerated dose (MTD)): 50 mg/kg/day | half-life ([5]; both sexes, cynomolgus monkey, Mean ± SD of male and female NHP): 14.9 ± 10.3 h | half-life ([5]; cynomolgus monkey, Female NHP): 22.2 h | half-life ([5]; cynomolgus monkey, Male NHP): 7.66 h | AUC(0-t) [5, 7]: 989 ng·h/mL | Cmax [5, 7]: 72.7 ng/mL | Tmax [5, 7]: 0.5 h | AUC(0-t) [5, 8]: 802 ng·h/mL | Cmax [5, 8]: 67.5 ng/mL | Tmax [5, 8]: 2 h
